# Measured values: publication PMC9516332 (Frontiers in Oncology, 2022)
# Read-outs that look alike come from different tables or passages of the source.
# Legend:
# 134 cancer cell lines = experiment: Cell viability assay (ATPlite, 72 hours), IC50 on cancer cell line panel
# [1] = biological target: panel of 255 wild-type kinases (Homo sapiens, UniProt Q9Y6M4); experiment: Kinase panel profiling at 1 µmol/L (MSA or IMAP), percentage inhibition; assay type: biochemical; conditions: kinase CK1γ3; 1 µmol/L single concentration; read-out: %-inhibition at 1 µmol/L, CK1γ3
# [2] = biological target: panel of 255 wild-type kinases (Homo sapiens, UniProt P29317); experiment: as above; assay type: biochemical; conditions: kinase EPHA2; 1 µmol/L single concentration; read-out: %-inhibition at 1 µmol/L, EPHA2
smiles,measurement,setting,value
CCc1nc(C(N)=O)c(Nc2ccc(N3CCC(N4CCN(C)CC4)CC3)c(OC)c2)nc1NC1CCOCC1 [gilteritinib],IC50,"134 cancer cell lines; Homo sapiens, MV4-11, read-out: IC50 in cell proliferation assay, MV4-11 cell line (FLT3 ITD)",0.832 nM
same,IC50,"134 cancer cell lines; Homo sapiens, MeWo, read-out: IC50 in cell proliferation assay, MeWo cell line",336 nM
same,IC50,"134 cancer cell lines; Homo sapiens, NCCIT, read-out: IC50 in cell proliferation assay, NCC-IT cell line",307 nM
same,IC50,"134 cancer cell lines; Homo sapiens, NCI-H82, read-out: IC50 in cell proliferation assay, cell line NCI-H82",300 nM
same,IC50,"134 cancer cell lines; Homo sapiens, NCI-H460, read-out: IC50 in cell proliferation assay, NCI-H460 cell line",499 nM
same,IC50,"134 cancer cell lines; Homo sapiens, NCI-H661, read-out: IC50 in cell proliferation assay, NCI-H661 cell line",233 nM
same,IC50,"134 cancer cell lines; Homo sapiens, NCI-H716, read-out: IC50 in cell proliferation assay, cell line NCI-H716 (FGFR2-COL14A1)",584 nM
same,IC50,"134 cancer cell lines; Homo sapiens, NCI-H1650, read-out: IC50 in cell proliferation assay, NCI-H1650 cell line (EGFR exon19del)",471 nM
same,IC50,"134 cancer cell lines; Homo sapiens, NCI-H1975, read-out: IC50 in cell proliferation assay, NCI-H1975 cell line (EGFR p.L858R + p.T790M)",495 nM
same,IC50,"134 cancer cell lines; Homo sapiens, NCI-H2228, read-out: IC50 in cell proliferation assay, NCI-H2228 cell line (EML4-ALK)",1.84 nM
same,IC50,"134 cancer cell lines; Homo sapiens, OVCAR-3, read-out: IC50 in cell proliferation assay, cell line OVCAR-3",591 nM
same,IC50,"134 cancer cell lines; Homo sapiens, PFSK-1, read-out: IC50 in cell proliferation assay, cell line PFSK-1",319 nM
same,IC50,"134 cancer cell lines; Homo sapiens, RL95-2, read-out: IC50 in cell proliferation assay, cell line RL95-2 (EGFR p.A289V)",177 nM
same,IC50,"134 cancer cell lines; Homo sapiens, RPMI-7951, read-out: IC50 in cell proliferation assay, cell line RPMI-7951 (BRAF p.V600E)",645 nM
same,IC50,"134 cancer cell lines; Homo sapiens, RS4-11, read-out: IC50 in cell proliferation assay, cell line RS4;11",388 nM
same,IC50,"134 cancer cell lines; Homo sapiens, Rec1, read-out: IC50 in cell proliferation assay, cell line REC-1",1390 nM
same,IC50,"134 cancer cell lines; Homo sapiens, SHP77, read-out: IC50 in cell proliferation assay, cell line SHP-77",2470 nM
same,IC50,"134 cancer cell lines; Homo sapiens, SK-BR-3, read-out: IC50 in cell proliferation assay, cell line SK-BR-3 (ERBB2 amplification)",12500 nM
same,IC50,"134 cancer cell lines; Homo sapiens, SK-N-AS, read-out: IC50 in cell proliferation assay, cell line SK-N-AS",439 nM
same,IC50,"134 cancer cell lines; Homo sapiens, SK-N-FI, read-out: IC50 in cell proliferation assay, cell line SK-N-FI",242 nM
same,IC50,"134 cancer cell lines; Homo sapiens, SK-N-MC, read-out: IC50 in cell proliferation assay, cell line SK-N-MC",242 nM
same,IC50,"134 cancer cell lines; Homo sapiens, SK-N-SH, read-out: IC50 in cell proliferation assay, cell line SK-N-SH (ALK p.F1174L)",415 nM
same,IC50,"134 cancer cell lines; Homo sapiens, SNU-5, read-out: IC50 in cell proliferation assay, cell line SNU-5 (MET amplification)",466 nM
same,IC50,"134 cancer cell lines; Homo sapiens, SNU-16, read-out: IC50 in cell proliferation assay, cell line SNU-16 (FGFR2 amplification)",1090 nM
same,IC50,"134 cancer cell lines; Homo sapiens, SNU-C2B, read-out: IC50 in cell proliferation assay, cell line SNU-C2B (EGFR p.R165Q)",352 nM
same,IC50,"134 cancer cell lines; Homo sapiens, SU-DHL-1, read-out: IC50 in cell proliferation assay, cell line SU-DHL-1 (NPM1-ALK)",19 nM
same,IC50,"134 cancer cell lines; Homo sapiens, SU-DHL-6, read-out: IC50 in cell proliferation assay, cell line SU-DHL-6",993 nM
same,IC50,"134 cancer cell lines; Homo sapiens, SUP-T1, read-out: IC50 in cell proliferation assay, cell line SUP-T1",956 nM
same,IC50,"134 cancer cell lines; Homo sapiens, SW48, read-out: IC50 in cell proliferation assay, cell line SW48 (EGFR p.G719S)",286 nM
same,IC50,"134 cancer cell lines; Homo sapiens, SW480, read-out: IC50 in cell proliferation assay, cell line SW480",1360 nM
same,IC50,"134 cancer cell lines; Homo sapiens, SW626, read-out: IC50 in cell proliferation assay, cell line SW626",551 nM
same,IC50,"134 cancer cell lines; Homo sapiens, SW780, read-out: IC50 in cell proliferation assay, cell line SW780 (FGFR3-BAIAP2L1)",483 nM
same,IC50,"134 cancer cell lines; Homo sapiens, SW837, read-out: IC50 in cell proliferation assay, cell line SW837",1950 nM
same,IC50,"134 cancer cell lines; Homo sapiens, SW872, read-out: IC50 in cell proliferation assay, cell line SW872 (BRAF p.V600E)",302 nM
same,IC50,"134 cancer cell lines; Homo sapiens, SW900, read-out: IC50 in cell proliferation assay, cell line SW900",315 nM
same,IC50,"134 cancer cell lines; Homo sapiens, SW948, read-out: IC50 in cell proliferation assay, cell line SW948",789 nM
same,IC50,"134 cancer cell lines; Homo sapiens, SW982, read-out: IC50 in cell proliferation assay, cell line SW982 (BRAF p.V600E)",323 nM
same,IC50,"134 cancer cell lines; Homo sapiens, SW-620, read-out: IC50 in cell proliferation assay, cell line SW620",527 nM
same,IC50,"134 cancer cell lines; Homo sapiens, T98G, read-out: IC50 in cell proliferation assay, cell line T98G",819 nM
same,IC50,"134 cancer cell lines; Homo sapiens, TCC-SUP, read-out: IC50 in cell proliferation assay, cell line TCCSUP",326 nM
same,IC50,"134 cancer cell lines; Homo sapiens, THP-1, read-out: IC50 in cell proliferation assay, cell line THP-1",1120 nM
same,IC50,"134 cancer cell lines; Homo sapiens, U2OS, read-out: IC50 in cell proliferation assay, cell line U2OS",224 nM
same,IC50,"134 cancer cell lines; Homo sapiens, U-87 MG, read-out: IC50 in cell proliferation assay, cell line U-87MG ATCC",2250 nM
same,IC50,"134 cancer cell lines; Homo sapiens, U-118-MG, read-out: IC50 in cell proliferation assay, cell line U-118MG",1330 nM
same,IC50,"134 cancer cell lines; Homo sapiens, UMUC3, read-out: IC50 in cell proliferation assay, cell line UM-UC-3",461 nM
same,IC50,"134 cancer cell lines; Hs766T, read-out: IC50 in cell proliferation assay, Hs 766T cell line",343 nM
same,IC50,"134 cancer cell lines; L-82, read-out: IC50 in cell proliferation assay, L-82 cell line (NPM1-ALK)",2 nM
same,IC50,"134 cancer cell lines; Rh30, read-out: IC50 in cell proliferation assay, cell line Rh30",355 nM
same,IC50,"134 cancer cell lines; read-out: IC50 in cell proliferation assay, 11-18 cell line (EGFR p.L858R)",580 nM
same,IC50,"134 cancer cell lines; read-out: IC50 in cell proliferation assay, Hs 852.T cell line",193 nM
same,IC50,"134 cancer cell lines; read-out: IC50 in cell proliferation assay, JAR cell line",476 nM
same,IC50,"134 cancer cell lines; read-out: IC50 in cell proliferation assay, cell line 5637",545 nM
same,IC50,"134 cancer cell lines; read-out: IC50 in cell proliferation assay, cell line A-388",1300 nM
same,IC50,"134 cancer cell lines; read-out: IC50 in cell proliferation assay, cell line DB",893 nM
same,IC50,"134 cancer cell lines; read-out: IC50 in cell proliferation assay, cell line DEL (NPM1-ALK)",2.58 nM
same,IC50,"134 cancer cell lines; read-out: IC50 in cell proliferation assay, cell line ES-2 (BRAF p.V600E)",712 nM
same,IC50,"134 cancer cell lines; read-out: IC50 in cell proliferation assay, cell line PA-1",489 nM
same,IC50,"134 cancer cell lines; read-out: IC50 in cell proliferation assay, cell line PC-3",889 nM
same,IC50,"134 cancer cell lines; read-out: IC50 in cell proliferation assay, cell line RD",290 nM
same,IC50,"134 cancer cell lines; read-out: IC50 in cell proliferation assay, cell line RKO (BRAF p.V600E)",1340 nM
same,IC50,"134 cancer cell lines; read-out: IC50 in cell proliferation assay, cell line RL",2600 nM
same,IC50,"134 cancer cell lines; read-out: IC50 in cell proliferation assay, cell line RT-4 (FGFR3-TACC3)",1390 nM
same,IC50,"134 cancer cell lines; read-out: IC50 in cell proliferation assay, cell line SR (NPM1-ALK)",22 nM
same,IC50,"134 cancer cell lines; read-out: IC50 in cell proliferation assay, cell line T24",329 nM
same,IC50,"134 cancer cell lines; read-out: IC50 in cell proliferation assay, cell line TT (RET p.C634W)",178 nM
same,IC50,"134 cancer cell lines; read-out: IC50 in cell proliferation assay, cell line VA-ES-BJ",431 nM
same,inhibition at 1 µM,[1],11%
same,inhibition at 1 µM,[2],66%
